# Experiment: recombinant barcode read abundance after kanamycin selection (control-corrected) (log10(CPM+1)); higher = more efficient recombination; sequences stand for … in AGTGCAGAGAAAATCGGCCAGTTTTCTCTGCCTGCAGTCCGCATGCCGT…AGATTTATGCAGCGGACTGCCTTTCTCCCAAAGTGATAAACCGGACAGTATCATGGACCGGTTTTCCCGGTAATCCGTATTTGCAAGGTTGGTTTCACT; site = the 11-nt target
# Protocol: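 Pooled E. coli target-specificity screen for the IS621 bridge recombinase. Each library plasmid pairs an 11-nt target (CT core) with a bridge RNA whose target-binding loop (9-nt LTG + 4-nt RTG) is reprogrammed; the rest of the 177-nt WT IS621 bridge RNA scaffold is fixed. The plasmid is co-electroporated with a WT donor plasmid; recombinase is induced with 0.1 mM IPTG and recombinants are selected on kanamycin. Recombinant barcodes are sequenced, converted to CPM, averaged over two biological replicates and corrected by the unselected control CPM. Molecule = full bridge RNA written as DNA: LTG = specificity nt 1-9, RTG = reverse complement of specificity nt 8-11, in the WT scaffold.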
# 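Also: IS621 recombinase and bridge RNA in Escherichia coli cells.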
row,Sequence,recombinant barcode read abundance (log10)
1,AATCTCCCTTGGGTTCTAACCTGTTGCCT (site AATCTCCCTAG),1.07
2,AATGAATCTTGGGTTCTAACCTGTTGCCT (site AATGAATCTAG),0.312
3,AATGAATCTTGGGTTCTAACCTGTTGCCT (site AATGCATCTAG),0.255
4,AATGAATCTTGGGTTCTAACCTGTTGCCT (site AATGGATCTAG),0.53
5,AATGAATCTTGGGTTCTAACCTGTTGCCT (site AATGTATCTAG),0.301
6,AATGGGCCTTGGGTTCTAACCTGTTGCCT (site AATGGGACTAG),0.131
7,AATGGGCCTTGGGTTCTAACCTGTTGCCT (site AATGGGCCTAG),0.273
8,AATGGGCCTTGGGTTCTAACCTGTTGCCT (site AATGGGGCTAG),0.179
9,AATGGGCCTTGGGTTCTAACCTGTTGCCT (site AATGGGTCTAG),0.201
10,AATGGGGCTTGGGTTCTAACCTGTTGCTG (site AATGGGGCTCA),1.15
11,AATGGGGCTTGGGTTCTAACCTGTTGCTG (site TATGGAGCTCA),0.0813
12,AATGTACCTTGGGTTCTAACCTGTTGCCT (site AATGTACCTAG),1.89
13,AATGTACCTTGGGTTCTAACCTGTTGCCT (site CATGTACCTAG),0.45
14,AATGTACCTTGGGTTCTAACCTGTTGCCT (site GATGTACCTAG),0.0545
15,AATGTACCTTGGGTTCTAACCTGTTGCCT (site TATGTACCTAG),1.27
16,AATGTGTCTTGGGTTCTAACCTGTTGCCT (site AAAGTGTCTAG),0.663
17,AATGTGTCTTGGGTTCTAACCTGTTGCCT (site AACGTGTCTAG),1.47
18,AATGTGTCTTGGGTTCTAACCTGTTGCCT (site AAGGTGTCTAG),1.01
19,AATGTGTCTTGGGTTCTAACCTGTTGCCT (site AATGTGTCTAG),2.59
20,AATTAGACTTGGGTTCTAACCTGTTGCCT (site AATTAGACTAG),1.12
21,AATTAGACTTGGGTTCTAACCTGTTGCCT (site CATTAGACTAG),0.152

row,Sequence,recombinant barcode read abundance (log10)
1,AATTAGACTTGGGTTCTAACCTGTTGCCT (site GATTAGACTAG),0.226
2,AATTAGACTTGGGTTCTAACCTGTTGCCT (site TATTAGACTAG),0.125
3,AATTAGCCTTGGGTTCTAACCTGTTGCCT (site AATTAGCCTAG),0.488
4,AATTAGCCTTGGGTTCTAACCTGTTGCCT (site GTGAGCACTTA),0.185
5,AATTGGCCTTGGGTTCTAACCTGTTGCTT (site AATTGGCCTAA),0.344
6,AATTGGCCTTGGGTTCTAACCTGTTGCTT (site GATAGGCCTAA),0.37
7,AATTTAGCTTGGGTTCTAACCTGTTGCCT (site AATTAAGCTAG),0.172
8,AATTTAGCTTGGGTTCTAACCTGTTGCCT (site AATTCAGCTAG),0.169
9,AATTTAGCTTGGGTTCTAACCTGTTGCCT (site AATTGAGCTAG),0.0396
10,AATTTAGCTTGGGTTCTAACCTGTTGCCT (site AATTTAGCTAG),0.244
11,ACAAAACCTTGGGTTCTAACCTGTTGCCT (site ACAAAACCTAG),0.171
12,ACAAAACCTTGGGTTCTAACCTGTTGCCT (site ACAAACCCTAG),0.461
13,ACAAAACCTTGGGTTCTAACCTGTTGCCT (site ACAAAGCCTAG),0.0848
14,ACAAAACCTTGGGTTCTAACCTGTTGCCT (site ACAAATCCTAG),0.0655
15,ACAAAAGCTTGGGTTCTAACCTGTTGCGG (site ACAAAAGCTCC),1.59
16,ACAAAAGCTTGGGTTCTAACCTGTTGCGG (site ACAAAGGCTCC),0.514
17,ACAAAGACTTGGGTTCTAACCTGTTGCCT (site ACAAAGACTAG),0.847
18,ACAAAGACTTGGGTTCTAACCTGTTGCCT (site ACAAGGGCTAG),0.0359
19,ACAACCACTTGGGTTCTAACCTGTTGCCT (site ACAACCACTAG),0.235
20,ACAACCACTTGGGTTCTAACCTGTTGCCT (site ACAACGACTAG),0.0258
21,ACAACCTCTTGGGTTCTAACCTGTTGCCG (site ACAACCTCTCG),1.23

row,Sequence,recombinant barcode read abundance (log10)
1,ACAACCTCTTGGGTTCTAACCTGTTGCCG (site TAGGGTACTGC),0
2,ACAAGCACTTGGGTTCTAACCTGTTGCCT (site ACAAGCACTAG),1.46
3,ACAAGCACTTGGGTTCTAACCTGTTGCCT (site ACCATCACTAG),0.2
4,ACAAGGGCTTGGGTTCTAACCTGTTGCCT (site ACAAAGACTAG),0.261
5,ACAAGGGCTTGGGTTCTAACCTGTTGCCT (site ACAAGGGCTAG),0.547
6,ACAAGTCCTTGGGTTCTAACCTGTTGCGG (site ACAAGTCCTCC),1.74
7,ACAAGTCCTTGGGTTCTAACCTGTTGCGG (site ATAAGTCCTTC),0.0466
8,ACAATGTCTTGGGTTCTAACCTGTTGCGG (site ACAATGTCTCC),1.27
9,ACAATGTCTTGGGTTCTAACCTGTTGCGG (site ACACTGTCTCC),0.148
10,ACAATGTCTTGGGTTCTAACCTGTTGCGG (site ACAGTGTCTCC),0.192
11,ACAATGTCTTGGGTTCTAACCTGTTGCGG (site ACATTGTCTCC),0.427
12,ACACACTCTTGGGTTCTAACCTGTTGCTG (site ACACACTCTCA),1.97
13,ACACACTCTTGGGTTCTAACCTGTTGCTG (site ACACTCCCTCA),0.0463
14,ACACCACCTTGGGTTCTAACCTGTTGCCT (site AAACCACCTAG),0.585
15,ACACCACCTTGGGTTCTAACCTGTTGCCT (site ACACCACCTAG),0.0741
16,ACACCACCTTGGGTTCTAACCTGTTGCCT (site AGACCACCTAG),0.179
17,ACACCACCTTGGGTTCTAACCTGTTGCCT (site ATACCACCTAG),0.0171
18,ACACGCCCTTGGGTTCTAACCTGTTGCAC (site ACACGCCCTGT),0.333
19,ACACGCCCTTGGGTTCTAACCTGTTGCAC (site AGACTCCCTGT),0.0104
20,ACACGGCCTTGGGTTCTAACCTGTTGCCG (site ACACGGCCTCG),0.428
21,ACACGGCCTTGGGTTCTAACCTGTTGCCG (site TAGTACGCTAA),0.145

row,Sequence,recombinant barcode read abundance (log10)
1,ACACTAACTTGGGTTCTAACCTGTTGCCT (site AAACTAACTAG),0.071
2,ACACTAACTTGGGTTCTAACCTGTTGCCT (site ACACTAACTAG),0.404
3,ACACTAACTTGGGTTCTAACCTGTTGCCT (site AGACTAACTAG),0.0933
4,ACACTAACTTGGGTTCTAACCTGTTGCCT (site ATACTAACTAG),0
5,ACACTGGCTTGGGTTCTAACCTGTTGCCT (site ACACTGGCTAG),0.987
6,ACACTGGCTTGGGTTCTAACCTGTTGCCT (site ACCCTGGCTAG),0.0877
7,ACACTGGCTTGGGTTCTAACCTGTTGCCT (site ACGCTGGCTAG),0.025
8,ACACTGGCTTGGGTTCTAACCTGTTGCCT (site ACTCTGGCTAG),0
9,ACAGAGACTTGGGTTCTAACCTGTTGCAC (site ACAGAGACTGT),1.76
10,ACAGAGACTTGGGTTCTAACCTGTTGCAC (site ACAGAGACTTA),0.183
11,ACAGATTCTTGGGTTCTAACCTGTTGCCT (site ACAGATTCTAG),1.73
12,ACAGATTCTTGGGTTCTAACCTGTTGCCT (site ATAGAGTCTAG),0.0143
13,ACAGGAGCTTGGGTTCTAACCTGTTGCGG (site ACACGACCTCC),0.154
14,ACAGGAGCTTGGGTTCTAACCTGTTGCGG (site ACAGGAGCTCC),2.61
15,ACAGGATCTTGGGTTCTAACCTGTTGCTT (site ACAGAATCTAG),0.55
16,ACAGGATCTTGGGTTCTAACCTGTTGCTT (site ACAGGATCTAA),2.18
17,ACAGGTTCTTGGGTTCTAACCTGTTGCCT (site AAAGGTTCTAG),0.0508
18,ACAGGTTCTTGGGTTCTAACCTGTTGCCT (site ACAGGTTCTAG),2.24
19,ACAGGTTCTTGGGTTCTAACCTGTTGCCT (site AGAGGTTCTAG),0.283

# — the supplement of paper PMC11208160
